Test results as given in PMC12281142, “A potent phenylalkylamine disrupts mycobacterial membrane bioenergetics and augments bactericidal activity of bedaquiline” (iScience, 2025).
Converted amounts (≈) assume the structure as drawn. “And” between values parts separate entries of the source, which are not always exact repeats. Identical values can stand only once. Like-named read-outs stand apart in the source and are kept apart here.

Assays:
M. bovis BCG [1] = test: microbe, parasite or virus in culture; type: cell-based, Mycobacterium bovis BCG
M. smegmatis mc2155 = test: MIC against M. smegmatis mc2155; type: cell-based, Mycobacterium smegmatis; conditions: Mycolicibacterium smegmatis
Vero E6 = test: Cytotoxicity in Vero E6 cells; type: cell-based, African green monkey; conditions: growth suppressed by 50% vs untreated
Method: (§1) To each well in a 96-well plate, 50,000 cells in 100 μL media were seeded. Vero E6 and HepG2 cells were incubated overnight in DMEM for cell adherence at 37°C and 5% CO2. The media was removed from the wells and 100 μL solution made up of fresh DMEM media (99 μL) and the test compound (1 μL from a DMSO stock solution that was […] more concentrated than the final concentration in the well) was then added to each well. DMSO content of each well was consistently kept at 0.5 %v/v. Treated plates were incubated for 48 h (5% CO2, 37°C), after which 10 μL of Celltitre 96 Aqueous One Solution was added to each well, without removal of media, and incubated for a further 3 h. Subsequently, absorbance readings were taken at 490 nm on a Tecan GENios Microplate Reader.
(§2) Cell viability was determined from the expression: Cellviability(%)={[Absorbance(cells+cpd)−Absorbance(cpd)]/[Absorbance(cells+vc)−Absorbance(vc)]}×100% where Absorbance (cells + cpd) = absorbance of wells containing cells and test compound in vehicle (media +0.5% DMSO); Absorbance (cpd) = absorbance of wells containing test compound in vehicle without cells (compound control); Absorbance (cells + vc) = absorbance of wells containing cells in vehicle (vc) only (untreated cells); Absorbance (vc) = absorbance of wells containing vehicle without cells (vehicle control). The percentage viability readings were plotted against log(concentration) on GraphPad Prism (Version 7.0, San Diego, CA) to give a sigmoidal curve, from which IC50, defined as the concentration of the compound that reduced cell viability by 50%, was obtained. At least 3 separate determinations were carried out.

[2] = tested on: Mab bolletii CCUG 50184-T; test: MIC against Mab bolletii CCUG 50184-T; type: cell-based, Mycobacterium abscessus subsp. bolletii; conditions: Mycobacteroides abscessus; for MIC50: CCUG50184, 72 h, 3 days
M. bovis BCG [3] = type: cell-based, Mycobacterium bovis BCG; conditions: 24 h
clinical isolates of Mab = test: MIC50 against Mab clinical isolates; type: cell-based, Mycobacterium abscessus; conditions: Mycobacteroides abscessus
M. bovis BCG [4] = conditions: 2x MIC90 over 24 h
M. bovis BCG [5] = type: cell-based, Mycobacterium bovis BCG; conditions: 0.5x to 4x MIC90BCG
M. bovis BCG [6] = type: cell-based, Mycobacterium bovis BCG; conditions: 2x MIC90 (19 μg/mL)
M. bovis BCG [7] = type: cell-based, Mycobacterium bovis BCG; conditions: exponential phase M. bovis BCG, 5 days
M. bovis BCG [8] = type: cell-based, Mycobacterium bovis BCG; conditions: PhA2 2x–4x MIC90BCG, TDZ 80 μM, 24 h
M. bovis BCG [9] = type: cell-based, Mycobacterium bovis BCG; conditions: 2xMIC90BCG
cat papillary muscle = conditions: cited from earlier work
[10] = tested on: Mab massiliense CCUG 48898-T; test: MIC against Mab massiliense CCUG 48898-T; type: cell-based, Mycobacterium abscessus subsp. massiliense; conditions: Mycobacteroides abscessus; for MIC50: CCUG48898, 72 h, 3 days
Mtb H37Rv = test: MIC by broth microdilution against Mtb H37Rv; type: cell-based, Mycobacterium tuberculosis; conditions: Mycobacterium tuberculosis, H37RV, 120 h
Mab abscessus ATCC 19977 = test: MIC against Mab abscessus ATCC 19977; type: cell-based, Mycobacterium abscessus subsp. abscessus; conditions: Mycobacteroides abscessus; for MIC50: ATCC19977, 72 h, 3 days
M. bovis BCG-pclgR-RFP = type: cell-based, Mycobacterium bovis BCG; conditions: 0.25x – 2x MIC90 (controls 10 μM), 24 h
HepG2 = test: Cytotoxicity in HepG2 cells; type: cell-based, human; conditions: Homo sapiens, HepG2; 48 h, growth suppressed by 50% vs untreated
Method: as §1, §2

M. bovis BCG [11] = type: cell-based, Mycobacterium bovis BCG; conditions: 2x MIC90BCG, 6 h time point, cultures still viable
[12] = tested on: nonreplicating M. bovis BCG; type: cell-based, Mycobacterium bovis BCG; conditions: 5 days, Wayne model
M. bovis BCG [13] = type: cell-based, Mycobacterium bovis BCG; conditions: luminescence normalized against CFU
[14] = 7H9 medium (first value of cell)
[15] = CA-MHB medium (second value of cell)

SMILES: CCCCCCCCC(C#N)(CCCN(C)CCc1ccc(OC)c(OC)c1)c1ccc(OC)c(OC)c1 (centres unmarked) [PhA2]
- MIC90 BCG (M. bovis BCG [1]; M. bovis BCG): 9 µg/mL (≈ 17.2 µM)
- MIC50 (M. bovis BCG [1]; M. bovis BCG, broth dilution, growth reduced by 50% vs untreated): 10 µM (≈ 5.25 µg/mL)
- MIC50 (M. bovis BCG [1]; Mycobacterium tuberculosis variant bovis BCG, BCG, 120 h, read-out: MIC50 BCG With Glycerol, 7H9 broth with glycerol, 5 days): 10 µM (≈ 5.25 µg/mL)
- MIC50 (M. bovis BCG [1]; Mycobacterium tuberculosis variant bovis BCG, BCG, 120 h, read-out: MIC50 BCG Without Glycerol, 7H9 broth without glycerol, 5 days): 22 µM (≈ 11.5 µg/mL)
- MIC50 (M. bovis BCG [1]; Mycobacterium tuberculosis variant bovis BCG, BCG, M. bovis BCG, broth dilution, growth reduced by 50% vs untreated): 10 to 16 µM (≈ 5.25 to 8.4 µg/mL)
- MIC90 (M. bovis BCG [1]; Mycobacterium tuberculosis variant bovis BCG, BCG, M. bovis BCG, broth dilution, growth reduced by 90% vs untreated): 18 µM
- MIC50 (M. bovis BCG [1]; Mycobacterium tuberculosis variant bovis BCG, BCG, read-out: M. bovis BCG MIC50 (Table S4)): 10 µM (≈ 5.25 µg/mL)
- MIC90 (M. bovis BCG [1]; Mycobacterium tuberculosis variant bovis BCG, BCG, read-out: M. bovis BCG MIC90 (Table S4)): 18 µM
- MIC90 (M. bovis BCG [1]; Mycobacterium tuberculosis variant bovis BCG, BCG, read-out: MIC90 (Table S1), M. bovis BCG, broth dilution): 18 µM
- MIC90 (M. bovis BCG [1]; Mycobacterium tuberculosis variant bovis BCG, BCG, read-out: MIC90 BCG, M. bovis BCG): 9.4 µg/mL
- MIC50 (M. smegmatis mc2155; MC2155, 24 h, incubation 1 day, read-out: M. smegmatis mc2155 MIC50 (Table S4)): 41 µM (≈ 21.5 µg/mL)
- MIC90 (M. smegmatis mc2155; MC2155, 24 h, incubation 1 day, read-out: M. smegmatis mc2155 MIC90 (Table S4)): 58 µM (≈ 30.4 µg/mL)
- MIC90 (M. smegmatis mc2155; MC2155, read-out: MIC90 M. smegmatis): 52.5 µM (≈ 27.5 µg/mL)
- IC50 (Vero E6; 48 h): 28 µM
- IC50 (Vero E6; Chlorocebus sabaeus, Vero C1008, 48 h): 28 to 29 µM
- MIC90 ([2]; CCUG50184, 7H9 broth (first value)): 95 µM (≈ 49.9 µg/mL)
- MIC50 [2, 14]: 62 µM (≈ 32.5 µg/mL)
- MIC50 [2, 15]: 16 µM (≈ 8.4 µg/mL)
- MIC90 ([2]; CCUG50184, camH broth (second value)): 27 µM (≈ 14.2 µg/mL)
- methylene blue decolorization (O2 uptake) (M. bovis BCG [3]; 0.5x and 1x MIC90BCG): Decolorization (active O2 uptake)
- methylene blue decolorization (O2 uptake) (M. bovis BCG [3]; 2x and 4x MIC90BCG): No decolorization
- MIC50 (clinical isolates of Mab; read-out: MIC50 seven Mab clinical isolates): 22 to 39 µM
- MIC50 (clinical isolates of Mab; Mab clinical isolate M9, 7H9 broth, read-out: MIC50 M9): 26.5 µM
- MIC50 (clinical isolates of Mab; Mab clinical isolate M111, 7H9 broth, read-out: MIC50 M111): 24 µM
- MIC50 (clinical isolates of Mab; Mab clinical isolate M232, 7H9 broth, read-out: MIC50 M232): 22 µM
- MIC50 (clinical isolates of Mab; Mab clinical isolate M337, 7H9 broth, read-out: MIC50 M337): 25 µM
- MIC50 (clinical isolates of Mab; Mab clinical isolate M404, 7H9 broth, read-out: MIC50 M404): 26.5 µM
- MIC50 (clinical isolates of Mab; Mab clinical isolate M422, 7H9 broth, read-out: MIC50 M422): 23 µM
- MIC50 (clinical isolates of Mab; Mab clinical isolate M506, 7H9 broth, read-out: MIC50 M506): 23.5 µM
- MIC50 (clinical isolates of Mab; range over isolates, read-out: MIC50 seven Mab clinical isolates): 12 to 21 µg/mL
- membrane permeabilization (M. bovis BCG [4]): induced membrane permeabilization
- formazan formation from MTS (M. bovis BCG [5]): dose dependent reduction in formazan
- oxygen consumption rate (M. bovis BCG [6]): uptake was reduced to the basal level
- MBC99.9 (10^3-fold kill) (M. bovis BCG [7]): 2 x MIC90
- NADH/NAD+ ratio (M. bovis BCG [8]): higher ratios
- reduction of CFUs (M. bovis BCG [9]; 21-day time point): 10^5 fold
- regrowth in time-kill curve (M. bovis BCG [9]; 21 days): no rebound in growth
- ED50 (concentration to reduce maximal contractility of the papillary muscle by 50%) (cat papillary muscle): 130 µM
- MIC90 ([10]; CCUG48898, 7H9 broth (first value)): 91 µM (≈ 47.8 µg/mL)
- MIC50 [10, 14]: 61 µM (≈ 32 µg/mL)
- MIC50 [10, 15]: 11 µM (≈ 5.77 µg/mL)
- MIC90 ([10]; CCUG48898, camH broth (second value)): 28 µM (≈ 14.7 µg/mL)
- MIC50 (Mtb H37Rv; read-out: MIC50 Mtb H37Rv): 17 µM (≈ 8.92 µg/mL)
- MIC90 (Mtb H37Rv; second value of cell MIC50/MIC90, incubation 5 days, read-out: MIC90 Mtb H37Rv): 25 µM (≈ 13.1 µg/mL)
- MIC90 (Mab abscessus ATCC 19977; ATCC19977, 7H9 broth (first value), read-out: MIC90 Mab abscessus ATCC 19977): 85 µM (≈ 44.6 µg/mL)
- MIC50 (Mab abscessus ATCC 19977; [14]): 54 µM (≈ 28.3 µg/mL)
- MIC50 (Mab abscessus ATCC 19977; [15]): 19 µM (≈ 9.97 µg/mL)
- MIC90 (Mab abscessus ATCC 19977; ATCC19977, Mab abscessus, read-out: MIC90 abscessus): 85 µM and 45 µg/mL
- MIC90 (Mab abscessus ATCC 19977; ATCC19977, camH broth (second value), read-out: MIC90 Mab abscessus ATCC 19977): 26 µM (≈ 13.6 µg/mL)
- induction of pclgR promoter activity (M. bovis BCG-pclgR-RFP): induced promoter activity in a dose dependent manner
- IC50 (HepG2): 29 µM
- membrane depolarization (M. bovis BCG [11]): depolarization was evident
- kill of hypoxic M. bovis BCG ([12]; 2x MIC90BCG): resisted killing
- kill of hypoxic M. bovis BCG ([12]; 4x MIC90BCG): 10^3 fold
- ATP level (M. bovis BCG [13]; 2x MIC90, 12 h): 73%
- ATP level (M. bovis BCG [13]; 2x MIC90, 48 h): 27%
